In patent US11690824B2, “Antibacterial compounds” (THE GENERAL HOSPITAL CORPORATION, priority 2018, dated 2023):
Converted amounts (≈) assume the structure as drawn. Read-outs that look alike come from different tables or passages of the source.

Columns and labels:
S. aureus (MRSA) MW2 = test: Minimal inhibitory concentration (MIC) assay, micro-dilution; format: cell-based; conditions: for MIC: Staphylococcus aureus
Method in brief: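 Broth microdilution per CLSI standard, run in biological triplicate. S. aureus strains were grown in tryptic soy broth and E. faecium in brain-heart infusion broth, both at 37° C.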

S. aureus ATCC 33591 = test: MIC assay; format: cell-based; conditions: Staphylococcus aureus, ATCC33591; S. aureus ATCC 33591; read-out: Minimum inhibitory concentration
Source text: (§1) Bacterial strains, growth conditions, and persister isolation. Methicillin-resistant S. aureus strains, MW2 BAA-1707, ATCC 33591, and JE2, methicillin-susceptible S. aureus strains, NCTC 8325, Newman, and ATCC 29213, vancomycin-resistant S. aureus strain, VRS1, Enterococcus faecium E007, vancomycin-resistant E. faecium strains, C68,^7 WB312, and WC196, Klebsiella pneumoniae WGLW2 (BEI Resources, Manassas, Va., USA), Acinetobacter baumannii ATCC 17978, Pseudomonas aeruginosa PA14, and Enterobacter aerogenes ATCC 13048 were used to test antimicrobial activity (Table 1). S. aureus strains were grown in tryptic soy broth (TSB) (BD, Franklin Lakes, N.J., USA), and E. faecium was grown in brain-heart infusion (BHI) broth (BD, Franklin Lakes, N.J., USA) at 37° C. K. pneumoniae, A. baumannii, P. aeruginosa, and E. aerogenes were grown in Luria Bertani (LB) broth (BD, Franklin Lakes, N.J., USA) at 37° C.
(§2) Minimal inhibitory concentration (MIC) assay. The MICS of antibiotics were determined by the standard micro-dilution method recommended by the Clinical and Laboratory Standards Institute. MIC assays were conducted in biological triplicate.

S. aureus JE2 = test: MIC assay; format: cell-based; conditions: Staphylococcus aureus; S. aureus JE2; read-out: Minimum inhibitory concentration
Source text: as §1, §2

S. aureus NCTC 8325 = test: MIC assay; format: cell-based; conditions: Staphylococcus aureus, NCTC8325; S. aureus NCTC 8325; read-out: Minimum inhibitory concentration
Source text: as §1, §2

S. aureus Newman = test: MIC assay; format: cell-based; conditions: Staphylococcus aureus; S. aureus Newman; read-out: Minimum inhibitory concentration
Source text: as §1, §2

S. aureus VRS1 = test: MIC assay; format: cell-based; conditions: Staphylococcus aureus; S. aureus VRS1; read-out: Minimum inhibitory concentration
Source text: as §1, §2

E. faecium C68 = test: MIC assay; format: cell-based, Enterococcus faecium; conditions: Enterococcus faecium; E. faecium C68; read-out: Minimum inhibitory concentration
Source text: as §1, §2

E. faecium WB312 = test: MIC assay; format: cell-based, Enterococcus faecium; conditions: Enterococcus faecium; E. faecium WB312; read-out: Minimum inhibitory concentration
Source text: as §1, §2

E. faecium WC196 = test: MIC assay; format: cell-based, Enterococcus faecium; conditions: Enterococcus faecium; E. faecium WC196; read-out: Minimum inhibitory concentration
Source text: as §1, §2

E.faecium E007 = test: MIC assay; format: cell-based, Enterococcus faecium; conditions: Enterococcus faecium; E.faecium E007; read-out: Minimum inhibitory concentration
Source text: as §1, §2

A. baumannii ATCC 17978 = test: MIC assay; format: cell-based, Acinetobacter baumannii; conditions: Acinetobacter baumannii, ATCC17978; A. baumannii ATCC 17978; read-out: Minimum inhibitory concentration
Source text: as §1, §2

P. aeruginosa PA14 = test: MIC assay; format: cell-based, Pseudomonas aeruginosa; conditions: Pseudomonas aeruginosa; P. aeruginosa PA14; read-out: Minimum inhibitory concentration
Source text: as §1, §2

[1] = system: MRSA MW2 persisters (stationary phase); test: Persister killing assay; format: cell-based, S. aureus
Experimental: Persister killing assay. […] Persister cells of MRSA MW2 were prepared by growing cultures overnight to stationary phase at 37° C. at 200 rpm and washing 3 times with PBS. 1 mL of ˜2×10^8 CFU/mL MRSA persisters was added to 1 mL of PBS containing 2-fold of the desired concentration of antibiotics in a 96-well assay block (Corning Costar 3960). The assay block was incubated at 37° C., with shaking at 200 rpm. At specific times, […] were removed, washed once with PBS, serially diluted and spot-plated on TSA plates. Colonies were counted to enumerate the number of live cells after overnight incubation at 37° C. These experiments were conducted in biological triplicate.

MRSA MW2 biofilms = test: Biofilm persister killing assay; format: cell-based, S. aureus; conditions: 16 μg/ml nTZDpa combined with 10 μg/ml gentamicin, 24 h
Experimental: Biofilm persister killing assay. An overnight culture of cells was diluted 1:200 with TSB supplemented with 0.2% glucose and 3% NaCl. A 13 mm-diameter Millipore mixed cellulose ester membrane (EMD Millipore GSWP01300) was placed at the bottom of each well of a 12-well plate (Falcon 353043). 1 mL of the diluted culture was added to each well and incubated statically at 37° C. for 24 h. The membranes were washed 3-times with PBS and transferred to a fresh 12-well plate. 1 mL of PBS containing the desired concentration of antibiotics was added to each well, and then the plate was incubated statically at 37° C. for 24 h. The membranes were washed 3 times with PBS, placed in 2-mL microcentrifuge tubes containing 1 mL PBS, and sonicated in an ultrasonic bath (Fisher Scientific FS 30) for 10 min. The sonicated samples were serially diluted and spot-plated on TSA to enumerate the number of live cells. The experiment was conducted in biological triplicate.

MRSA MW2 = test: SYTOX Green membrane permeability assay; format: cell-based, S. aureus
Experimental: SYTOX Green membrane permeability assay. […] The washed cells were adjusted to OD600=0.4 with PBS. SYTOX Green (Molecular Probes, Waltham, Mass., USA) was added to 10 mL of the diluted bacterial suspension to a final concentration of 5 μM and incubated for 30 min at room temperature in the dark. 50 μL of the bacteria/SYTOX Green suspension was mixed with 50 μl of PBS containing twice the desired concentrations of compounds in black, clear-bottom, 96-well plates (Corning no. 3904). Fluorescence was measured at room temperature using a spectrophotometer (SpectraMax M2, Molecular Devices), with excitation and emission wavelengths of 485 nm and 525 nm, respectively. All experiments were conducted in biological triplicate.

Gram-negative bacteria = test: MIC against Gram-negative bacteria; format: cell-based
Source text: as §1, §2

Structure (SMILES): O=C(O)c1c(Sc2ccccc2)c2cc(Cl)ccc2n1Cc1ccc(Cl)cc1 [nTZDpa]
- MIC (S. aureus (MRSA) MW2; S. aureus (MRSA) MW2, read-out: Minimum inhibitory concentration): 4 µg/mL (≈ 9.34 µM)
- MIC (S. aureus (MRSA) MW2; Table 3, growing MRSA, read-out: MIC): 4 µg/mL (≈ 9.34 µM)
- MIC relative to MIC of vancomycin (S. aureus (MRSA) MW2; fold higher): 4 fold
- MIC (S. aureus ATCC 33591): 4 µg/mL (≈ 9.34 µM)
- MIC (S. aureus JE2): 4 µg/mL (≈ 9.34 µM)
- MIC (S. aureus NCTC 8325): 4 µg/mL (≈ 9.34 µM)
- MIC (S. aureus Newman): 4 µg/mL (≈ 9.34 µM)
- MIC (S. aureus VRS1): 4 µg/mL (≈ 9.34 µM)
- MIC (E. faecium C68): 4 µg/mL (≈ 9.34 µM)
- MIC (E. faecium WB312): 4 µg/mL (≈ 9.34 µM)
- MIC (E. faecium WC196): 4 µg/mL (≈ 9.34 µM)
- MIC (E.faecium E007): 4 µg/mL (≈ 9.34 µM)
- MIC (A. baumannii ATCC 17978): > 64 µg/mL
- MIC (P. aeruginosa PA14): > 64 µg/mL
- persister killing ([1]; 8 μg/ml nTZDpa and 80 μg/ml gentamicin): 3 logs
- time to eradicate 100% of persisters ([1]; 16 μg/ml nTZDpa and 10 μg/ml gentamicin): ≤ 3 h
- killing of MRSA persisters in combination ([1]; 16 μg/ml nTZDpa combined with 10× MIC of other aminoglycosides): synergistic killing of MRSA persisters
- reduction of MRSA persisters ([1]; 32 μg/mL): ~2 log
- time to complete eradication of persisters ([1]; 64 μg/mL, ~5×10^7 CFU/mL): ≤ 2 h
- MRSA persisters formed in biofilms (MRSA MW2 biofilms): completely eradicated MRSA persisters formed in biofilms
- concentration of maximum SYTOX Green fluorescence (MRSA MW2): 16 µg/mL
- antimicrobial activity against Gram-negative bacteria (Gram-negative bacteria): not effective against Gram-negative bacteria
